± gives the standard deviation of the averaged measurements.
Key:
Assay in all cases: pIC50, kinobeads binding competition
Settings in all cases: cell material: Jurkat lysate
UniProt Q9Y2K2 = target: UniProt Q9Y2K2
UniProt Q9Y2I7 = target: UniProt Q9Y2I7
CAMK4 = target: T1, CAMK4 (UniProt Q16566)
T1 sequence (whole entry): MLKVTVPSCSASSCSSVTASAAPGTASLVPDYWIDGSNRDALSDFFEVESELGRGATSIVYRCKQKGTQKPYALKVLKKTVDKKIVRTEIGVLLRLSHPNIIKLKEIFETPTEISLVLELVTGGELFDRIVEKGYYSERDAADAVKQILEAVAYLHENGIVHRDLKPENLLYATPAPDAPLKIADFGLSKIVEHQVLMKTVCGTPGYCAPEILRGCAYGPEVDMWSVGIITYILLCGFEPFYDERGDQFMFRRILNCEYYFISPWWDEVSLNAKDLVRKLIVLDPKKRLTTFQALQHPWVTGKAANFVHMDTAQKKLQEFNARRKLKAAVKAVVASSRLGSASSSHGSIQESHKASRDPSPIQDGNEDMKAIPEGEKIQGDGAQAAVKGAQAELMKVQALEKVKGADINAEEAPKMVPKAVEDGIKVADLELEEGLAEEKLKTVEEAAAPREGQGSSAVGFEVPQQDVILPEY

UniProt Q16659 = target: UniProt Q16659
UniProt Q16659, sequence (Q16659 whole entry): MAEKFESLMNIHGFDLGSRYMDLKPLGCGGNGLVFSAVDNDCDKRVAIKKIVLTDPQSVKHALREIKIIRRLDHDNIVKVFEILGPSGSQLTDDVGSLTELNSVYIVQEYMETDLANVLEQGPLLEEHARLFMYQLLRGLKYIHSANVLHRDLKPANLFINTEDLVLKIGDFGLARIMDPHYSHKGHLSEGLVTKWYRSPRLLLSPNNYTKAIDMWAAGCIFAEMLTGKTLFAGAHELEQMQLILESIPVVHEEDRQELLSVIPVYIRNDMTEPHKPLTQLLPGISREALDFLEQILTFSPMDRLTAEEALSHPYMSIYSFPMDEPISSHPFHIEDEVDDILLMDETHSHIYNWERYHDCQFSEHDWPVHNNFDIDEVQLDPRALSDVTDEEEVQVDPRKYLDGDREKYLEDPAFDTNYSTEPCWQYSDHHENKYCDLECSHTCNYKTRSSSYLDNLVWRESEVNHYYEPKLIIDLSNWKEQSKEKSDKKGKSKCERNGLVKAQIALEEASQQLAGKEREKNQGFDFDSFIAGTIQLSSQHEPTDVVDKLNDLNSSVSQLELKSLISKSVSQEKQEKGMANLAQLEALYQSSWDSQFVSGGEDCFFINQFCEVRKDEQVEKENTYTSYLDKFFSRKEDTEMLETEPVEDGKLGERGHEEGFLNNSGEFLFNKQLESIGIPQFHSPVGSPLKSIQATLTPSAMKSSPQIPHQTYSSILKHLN

BRAF = BRAF (UniProt P15056)
BRAF, sequence (P15056 whole entry): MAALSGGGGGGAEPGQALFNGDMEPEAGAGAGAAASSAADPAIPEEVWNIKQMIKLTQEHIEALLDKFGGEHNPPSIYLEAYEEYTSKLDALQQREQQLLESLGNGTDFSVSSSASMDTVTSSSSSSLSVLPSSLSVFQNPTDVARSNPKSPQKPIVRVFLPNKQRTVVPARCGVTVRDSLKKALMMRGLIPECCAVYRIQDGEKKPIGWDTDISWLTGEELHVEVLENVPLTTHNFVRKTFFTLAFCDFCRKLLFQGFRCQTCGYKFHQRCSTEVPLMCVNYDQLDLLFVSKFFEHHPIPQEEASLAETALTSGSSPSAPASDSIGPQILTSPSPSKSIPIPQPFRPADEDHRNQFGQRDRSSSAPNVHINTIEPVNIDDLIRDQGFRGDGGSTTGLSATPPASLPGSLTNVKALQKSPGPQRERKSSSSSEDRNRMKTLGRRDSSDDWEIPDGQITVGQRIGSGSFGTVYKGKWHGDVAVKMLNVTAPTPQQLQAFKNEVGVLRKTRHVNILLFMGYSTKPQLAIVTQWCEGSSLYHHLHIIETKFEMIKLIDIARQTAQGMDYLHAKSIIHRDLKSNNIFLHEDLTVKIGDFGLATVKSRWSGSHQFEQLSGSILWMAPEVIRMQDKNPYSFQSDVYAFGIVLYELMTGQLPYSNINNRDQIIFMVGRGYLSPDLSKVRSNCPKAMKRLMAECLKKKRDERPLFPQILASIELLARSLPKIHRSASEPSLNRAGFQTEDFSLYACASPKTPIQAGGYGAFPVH

BMPR1A = BMPR1A (UniProt P36894)
BMPR1A, sequence (P36894 whole entry): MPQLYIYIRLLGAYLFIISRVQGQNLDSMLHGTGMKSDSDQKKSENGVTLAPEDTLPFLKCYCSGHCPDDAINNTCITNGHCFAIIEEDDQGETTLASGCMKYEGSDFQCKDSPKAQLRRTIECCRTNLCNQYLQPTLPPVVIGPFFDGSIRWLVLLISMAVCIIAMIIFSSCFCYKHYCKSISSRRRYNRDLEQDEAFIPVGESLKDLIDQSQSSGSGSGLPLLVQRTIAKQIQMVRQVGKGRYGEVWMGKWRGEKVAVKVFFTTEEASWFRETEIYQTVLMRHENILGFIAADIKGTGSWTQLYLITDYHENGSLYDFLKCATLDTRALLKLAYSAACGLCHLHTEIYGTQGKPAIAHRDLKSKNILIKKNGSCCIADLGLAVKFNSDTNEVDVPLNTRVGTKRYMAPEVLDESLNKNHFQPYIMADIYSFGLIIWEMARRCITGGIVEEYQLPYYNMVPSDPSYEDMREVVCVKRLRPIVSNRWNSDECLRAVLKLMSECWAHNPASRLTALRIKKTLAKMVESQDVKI

IRAK1 = IRAK1 (UniProt P51617)
UniProt Q13557 = target: UniProt Q13557
UniProt Q13557, sequence (Q13557 whole entry): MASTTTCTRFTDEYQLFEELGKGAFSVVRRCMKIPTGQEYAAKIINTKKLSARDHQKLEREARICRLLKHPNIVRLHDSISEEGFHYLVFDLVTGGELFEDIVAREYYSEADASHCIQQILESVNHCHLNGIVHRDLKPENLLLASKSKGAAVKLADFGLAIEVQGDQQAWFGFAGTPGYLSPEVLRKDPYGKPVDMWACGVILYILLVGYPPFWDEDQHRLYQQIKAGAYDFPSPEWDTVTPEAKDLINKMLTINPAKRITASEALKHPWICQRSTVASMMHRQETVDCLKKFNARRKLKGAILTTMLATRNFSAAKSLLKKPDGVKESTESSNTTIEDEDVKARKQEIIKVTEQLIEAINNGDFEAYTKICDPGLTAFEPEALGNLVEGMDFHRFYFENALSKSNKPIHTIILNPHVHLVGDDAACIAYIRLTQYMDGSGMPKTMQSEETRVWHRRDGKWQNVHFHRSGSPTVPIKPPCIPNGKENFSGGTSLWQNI

UniProt Q05655 = target: UniProt Q05655
ILK = target: T2, ILK (UniProt Q13418)
T2 sequence (whole entry): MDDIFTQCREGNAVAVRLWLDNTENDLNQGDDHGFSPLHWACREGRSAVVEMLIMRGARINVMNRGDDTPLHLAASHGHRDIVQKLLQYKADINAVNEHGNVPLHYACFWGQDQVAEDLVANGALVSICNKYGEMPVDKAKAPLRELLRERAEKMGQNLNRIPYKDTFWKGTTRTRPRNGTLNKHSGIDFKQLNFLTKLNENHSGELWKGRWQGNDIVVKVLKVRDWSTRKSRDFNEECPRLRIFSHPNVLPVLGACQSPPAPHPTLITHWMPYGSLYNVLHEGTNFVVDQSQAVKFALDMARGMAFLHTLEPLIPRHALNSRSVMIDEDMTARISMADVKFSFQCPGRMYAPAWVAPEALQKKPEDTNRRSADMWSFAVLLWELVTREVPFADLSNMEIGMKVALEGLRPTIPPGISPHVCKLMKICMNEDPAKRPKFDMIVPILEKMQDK

MAST3 = MAST3 (UniProt O60307)
MAST3, sequence (O60307 whole entry): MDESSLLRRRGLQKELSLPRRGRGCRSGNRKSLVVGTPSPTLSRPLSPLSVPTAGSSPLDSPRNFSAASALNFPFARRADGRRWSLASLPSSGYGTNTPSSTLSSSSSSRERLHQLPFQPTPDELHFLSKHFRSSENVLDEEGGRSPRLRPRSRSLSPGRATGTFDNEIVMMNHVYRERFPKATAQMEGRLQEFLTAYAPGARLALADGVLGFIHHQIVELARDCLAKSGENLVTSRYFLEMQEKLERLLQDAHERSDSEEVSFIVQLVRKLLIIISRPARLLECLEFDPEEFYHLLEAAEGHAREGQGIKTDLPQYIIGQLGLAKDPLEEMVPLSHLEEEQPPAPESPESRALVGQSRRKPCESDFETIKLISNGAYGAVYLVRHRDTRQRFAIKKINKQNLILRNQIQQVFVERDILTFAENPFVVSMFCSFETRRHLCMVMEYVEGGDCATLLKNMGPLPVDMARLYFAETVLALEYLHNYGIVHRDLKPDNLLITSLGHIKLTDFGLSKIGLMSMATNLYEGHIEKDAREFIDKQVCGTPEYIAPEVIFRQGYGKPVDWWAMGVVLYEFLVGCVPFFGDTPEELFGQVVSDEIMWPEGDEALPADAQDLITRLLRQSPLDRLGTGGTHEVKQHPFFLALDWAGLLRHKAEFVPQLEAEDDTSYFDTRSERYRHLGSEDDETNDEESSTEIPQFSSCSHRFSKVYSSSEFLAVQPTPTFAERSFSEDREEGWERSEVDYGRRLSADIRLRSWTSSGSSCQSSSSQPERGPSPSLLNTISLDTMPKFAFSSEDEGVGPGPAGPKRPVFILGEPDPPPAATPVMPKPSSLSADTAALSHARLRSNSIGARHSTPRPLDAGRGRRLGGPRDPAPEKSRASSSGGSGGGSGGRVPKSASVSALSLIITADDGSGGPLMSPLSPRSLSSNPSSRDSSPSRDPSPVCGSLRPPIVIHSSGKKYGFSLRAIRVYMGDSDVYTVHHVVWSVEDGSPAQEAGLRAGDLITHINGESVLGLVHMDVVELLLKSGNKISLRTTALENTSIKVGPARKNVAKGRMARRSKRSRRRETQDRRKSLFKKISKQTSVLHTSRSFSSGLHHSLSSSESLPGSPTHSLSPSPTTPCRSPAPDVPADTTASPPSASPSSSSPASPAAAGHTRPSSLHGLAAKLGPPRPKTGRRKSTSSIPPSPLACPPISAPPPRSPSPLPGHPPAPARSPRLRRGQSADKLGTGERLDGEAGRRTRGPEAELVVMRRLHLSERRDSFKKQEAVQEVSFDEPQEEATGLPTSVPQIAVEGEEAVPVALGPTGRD

UniProt Q14289 = target: UniProt Q14289
UniProt Q14289, sequence (Q14289 whole entry, looked up): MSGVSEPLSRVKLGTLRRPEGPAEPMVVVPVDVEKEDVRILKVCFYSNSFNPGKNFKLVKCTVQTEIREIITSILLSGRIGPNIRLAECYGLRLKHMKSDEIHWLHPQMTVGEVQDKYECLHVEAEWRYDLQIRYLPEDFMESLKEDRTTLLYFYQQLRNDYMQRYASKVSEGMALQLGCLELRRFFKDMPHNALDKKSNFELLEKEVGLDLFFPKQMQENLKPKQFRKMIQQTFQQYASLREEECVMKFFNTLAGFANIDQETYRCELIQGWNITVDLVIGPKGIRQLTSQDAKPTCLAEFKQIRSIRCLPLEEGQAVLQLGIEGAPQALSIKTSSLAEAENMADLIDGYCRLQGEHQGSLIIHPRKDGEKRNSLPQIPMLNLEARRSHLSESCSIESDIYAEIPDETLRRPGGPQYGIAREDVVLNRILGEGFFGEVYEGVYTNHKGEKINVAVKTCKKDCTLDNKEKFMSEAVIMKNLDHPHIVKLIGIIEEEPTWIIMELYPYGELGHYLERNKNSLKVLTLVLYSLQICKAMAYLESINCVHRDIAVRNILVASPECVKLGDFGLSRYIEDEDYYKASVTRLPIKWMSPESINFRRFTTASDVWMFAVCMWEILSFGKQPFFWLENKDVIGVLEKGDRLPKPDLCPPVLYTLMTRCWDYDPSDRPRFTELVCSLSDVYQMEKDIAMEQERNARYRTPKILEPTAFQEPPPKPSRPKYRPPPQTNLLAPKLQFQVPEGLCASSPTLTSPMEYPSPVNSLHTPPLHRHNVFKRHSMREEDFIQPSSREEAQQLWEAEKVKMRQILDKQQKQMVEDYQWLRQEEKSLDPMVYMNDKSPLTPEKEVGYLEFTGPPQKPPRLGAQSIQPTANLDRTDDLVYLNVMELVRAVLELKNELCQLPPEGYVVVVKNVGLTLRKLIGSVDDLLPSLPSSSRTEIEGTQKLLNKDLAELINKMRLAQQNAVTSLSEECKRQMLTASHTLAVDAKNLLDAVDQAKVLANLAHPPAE

NEK9 = target: T3, NEK9 (UniProt Q8TD19)
T3 sequence (whole entry): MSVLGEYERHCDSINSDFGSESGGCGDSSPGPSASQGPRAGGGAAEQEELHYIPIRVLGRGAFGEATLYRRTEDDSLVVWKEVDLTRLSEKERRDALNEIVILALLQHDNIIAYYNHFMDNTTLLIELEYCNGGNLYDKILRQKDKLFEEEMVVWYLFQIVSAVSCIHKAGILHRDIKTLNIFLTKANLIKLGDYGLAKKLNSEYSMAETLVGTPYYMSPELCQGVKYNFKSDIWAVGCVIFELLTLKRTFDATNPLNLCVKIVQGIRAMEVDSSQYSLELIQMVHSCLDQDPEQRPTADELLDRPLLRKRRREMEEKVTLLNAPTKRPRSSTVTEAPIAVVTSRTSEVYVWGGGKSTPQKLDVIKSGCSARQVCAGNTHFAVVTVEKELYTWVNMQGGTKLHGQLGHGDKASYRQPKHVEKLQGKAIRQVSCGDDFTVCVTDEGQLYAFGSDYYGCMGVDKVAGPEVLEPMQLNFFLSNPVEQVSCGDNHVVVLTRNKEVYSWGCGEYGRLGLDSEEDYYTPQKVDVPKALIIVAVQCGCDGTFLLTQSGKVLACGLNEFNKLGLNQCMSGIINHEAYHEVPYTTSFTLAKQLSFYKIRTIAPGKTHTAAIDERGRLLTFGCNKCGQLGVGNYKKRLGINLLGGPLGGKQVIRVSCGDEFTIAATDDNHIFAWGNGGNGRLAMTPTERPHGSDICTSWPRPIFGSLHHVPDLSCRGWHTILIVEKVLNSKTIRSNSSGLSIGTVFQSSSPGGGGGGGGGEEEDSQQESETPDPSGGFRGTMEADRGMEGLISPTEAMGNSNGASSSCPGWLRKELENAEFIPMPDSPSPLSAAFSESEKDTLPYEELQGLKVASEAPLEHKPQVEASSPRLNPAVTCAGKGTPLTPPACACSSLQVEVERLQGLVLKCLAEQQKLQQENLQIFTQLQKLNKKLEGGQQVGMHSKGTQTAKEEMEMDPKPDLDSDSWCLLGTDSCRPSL

UniProt P23443 = target: UniProt P23443
TESK2 = TESK2 (UniProt Q96S53)
UniProt Q14004 = target: UniProt Q14004

pIC50 (UniProt Q9Y2K2): < 4.52
pIC50 (UniProt Q9Y2I7): < 4.52
pIC50 (CAMK4): < 4.52
pIC50 (UniProt Q16659): < 4.52
pIC50 (BRAF): < 4.52
pIC50 (BMPR1A): < 4.52
pIC50 (IRAK1): < 4.52
pIC50 (UniProt Q13557): < 4.52
pIC50 (UniProt Q05655): < 4.52
pIC50 (ILK): < 4.52
pIC50 (MAST3): < 4.52
pIC50 (UniProt Q14289): < 4.52
pIC50 (UniProt P23443): < 4.52
pIC50 (TESK2): < 4.52
pIC50 (UniProt Q14004): 7.42 ± 0.28
Structure (SMILES): CCc1cnn2c(NCc3ccc[n+]([O-])c3)cc(N3CCCC[C@H]3CCO)nc12 [dinaciclib]
pIC50 (NEK9): < 4.52
